Drawing on patent publication US12668589B2, “N-formamidopyrazoline derivative as P2X3 receptor antagonist and use thereof” (HANGZHOU WESTAN PHARMACEUTICAL TECHNOLOGY CO., LTD, priority 2020, dated 2026), this text covers IC50 for 35 compounds.

The target of this experiment is T1, human P2X3 (Homo sapiens, UniProt P56373).
T1 sequence (P56373 1-397): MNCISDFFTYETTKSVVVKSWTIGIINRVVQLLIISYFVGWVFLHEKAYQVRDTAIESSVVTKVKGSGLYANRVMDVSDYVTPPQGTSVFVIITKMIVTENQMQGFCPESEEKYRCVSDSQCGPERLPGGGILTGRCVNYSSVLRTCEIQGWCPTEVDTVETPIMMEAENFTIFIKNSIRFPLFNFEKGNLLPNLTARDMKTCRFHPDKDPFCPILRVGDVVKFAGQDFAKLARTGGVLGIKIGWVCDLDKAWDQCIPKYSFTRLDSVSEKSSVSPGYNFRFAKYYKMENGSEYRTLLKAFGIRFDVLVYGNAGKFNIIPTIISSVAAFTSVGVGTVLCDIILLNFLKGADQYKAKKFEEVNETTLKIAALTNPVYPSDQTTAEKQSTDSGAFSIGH
Put plainly: cell-based.

pIC50: −log10 of the molar value.

Protocol: An HEK293 cell line was used as cells. HEK293 cells were placed in a 37° C. incubator with 5% CO2 for culture. Passage was conducted when the cells grew to a density of 80% to 90%. A culture medium in an original 60 mm culture dish was discarded. After the cells were washed 3 times with a sterilized PBS solution, and the solution was blotted up. […] After the trypsin was blotted up, 3 mL of a cell culture medium was added to resuspend the cells. 0.5 mL of a resuspension solution was taken to be added into a new culture dish, and an total culture solution was supplemented to 5 mL. The culture dish was gently shaken to distribute the cells evenly, and then placed in a 37° C. incubator with 5% CO2 for culture.
First, treated slides were spread in a small 35 mm culture dish. 100 μL of resuspended cells were added, and then a total amount of a culture medium was supplemented to 2 mL. Target genes were transferred into the HEK293 cell line by adopting a calcium transfection method. Small dishes to be transfected were subjected to medium change 1 hour before transfection. 2 mL of a fresh cell culture solution was added. A 1.5 mL EP tube was taken, 200 μL of a 0.25 M CaCl2) solution was added, and 3 μg of plasmids to be transfected were added, and even mixing was conducted to form a DNA-CaCl2 solution. […] A pipette tip was used for mixing while adding. After adding all, gentle blowing and beating were conducted 8 to 10 times. After still standing for 5 minutes, they were added into small dishes. The small dishes were shaken slightly to mix the solution evenly, and the placed in a cell incubator. Culture mediums were replaced after 8 to 10 hours. Electrophysiological experiments were performed 24 to 48 hours after transfection.
Electrophysiological recording electrodes were obtained by two-step pulling by using an electrode puller (PP-10, Narishige). After an internal solution is injected into the electrodes, a water inlet resistance is 3 to 5 MΩ. During the experiment, a high potassium salt internal solution containing nystatin (K2SO4 of 75 mM, KCl of 120 mM, MgSO4 of 5 mM, HEPES of 10 mM, adjusting pH to 7.2 with Tris-base, and used after filtration) was used as an electrode internal solution. After the cells were sealed by the electrodes, there was no need to further break cell membranes in a sucked manner, but the cell membranes were bored through the perforation of the nystatin to the cell membranes, to form a hole channel. […] A clamping voltage was −60 mV, a sampling frequency was 10 kHz, and filtering was conducted at 2 kHz.
A working concentration of a P2X3 receptor agonist ATP was 1 μM, and an interval time between two times of ATP administrations was 10 minutes.

As to `C[C@@H](NC(=O)N1C[C@H](N2CCOCC2=O)C(c2ccc(F)cc2)=N1)c1cnc(C(F)(F)F)nc1` [Compound 33, (S)-4-(3-oxomorpholin-4-yl)-3-(4-fluorophenyl)-N-((R)-1-(2-(trifluoromethyl)pyrimidin-5-yl)ethyl)-4,5-dihydro-1H-pyrazol-1-carboxamide], the negative logarithm of the IC50 (pIC50) (in general, −log10 of the IC50, conventionally taken in molar units) is 6.60.
Under `Cc1ccc(C2=NN(C(=O)N[C@H](C)c3cnc(C(F)(F)F)nc3)C[C@@H]2N2CCCC2=O)cc1` [Compound 32, (S)-4-(2-oxopyrrolidin-1-yl)-3-(4-methylphenyl)-N-((R)-1-(2-(trifluoromethyl)pyrimidin-5-yl)ethyl)-4,5-dihydro-1H-pyrazol-1-carboxamide] stands 6.90; under `COC(=O)N(C)[C@@H]1CN(C(=O)N[C@H](C)c2ccc(C(F)(F)F)nc2)N=C1c1ccc(OC)cc1` [Compound 16a, (R)-4-(N-methyl-N-methoxycarbonylamino)-3-(4-methoxyphenyl)-N-((R)-1-(6-(trifluoromethyl)pyridin-3-yl)ethyl)-4,5-dihydro-1H-pyrazol-1-carboxamide], 7.06; under `Cc1ccc(C2=NN(C(=O)N[C@H](C)c3ccc(Cl)cc3)C[C@@H]2N2CCN(C)CC2=O)cc1` [Compound 2, (S)-4-(4-methyl-2-oxopiperazin-1-yl)-3-(4-methylphenyl)-N-((R)-1-(4-chlorophenyl)ethyl)-4,5-dihydro-1H-pyrazol-1-carboxamide], 5.12.
Under `COc1ccc([C@@H](C)NC(=O)N2C[C@H](N3CCCC3=O)C(c3ccc(C)cc3)=N2)nc1` [Compound 9] stands 6.28; under `COC(=O)N(C)[C@H]1CN(C(=O)N[C@H](C)c2ccc(C(F)(F)F)nc2)N=C1c1ccc(OC)cc1` [Compound 16, (S)-4-(N-methyl-N-methoxycarbonylamino)-3-(4-methoxyphenyl)-N-((R)-1-(6-(trifluoromethyl)pyridin-3-yl)ethyl)-4,5-dihydro-1H-pyrazol-1-carboxamide], 6.88.
Under `COc1ccc([C@@H](C)NC(=O)N2C[C@H](N3CCOCC3)C(c3ccc(F)cc3)=N2)cn1` [Compound 14, (S)-4-(morpholin-4-yl)-3-(4-fluorophenyl)-N-((R)-1-(6-methoxypyridin-3-yl)ethyl)-4,5-dihydro-1H-pyrazol-1-carboxamide] stands 6.13.
In the case of `Cc1ccc(C2=NN(C(=O)N[C@H](C)c3ccc(C(F)(F)F)nc3)C[C@@H]2N(C)C(=O)CN(C)C)cc1` [Compound 15, (S)-4-(2-(dimethylamino)-N-methylacetamido)-3-(4-methylphenyl)-N-((R)-1-(6-(trifluoromethyl)pyridin-3-yl)ethyl)-4,5-dihydro-1H-pyrazol-1-carboxamide], the pIC50 was 5.64.
For `Cc1cnc([C@@H](C)NC(=O)N2C[C@H](N3CCCC3=O)C(c3ccc(F)cc3)=N2)cn1` [Compound 28, (S)-4-(2-oxopyrrolidin-1-yl)-3-(4-fluorophenyl)-N-((R)-1-(5-methylpyrazin-2-yl)ethyl)-4,5-dihydro-1H-pyrazol-1-carboxamide] the value was 6.66; for `C[C@@H](NC(=O)N1C[C@H](N2CCOCC2=O)C(c2ccc(F)cc2)=N1)c1ccc(C(F)(F)F)nc1` [Compound 24, (S)-4-(3-oxomorpholin-4-y])-3-(4-fluorophenyl)-N-((R)-1-(2-(6-(trifluoromethyl)pyridin-3-yl)ethyl)-4,5-dihydro-1H-pyrazol-1-carboxamide], 6.67; for `CC(=O)N(C)[C@H]1CN(C(=O)N[C@H](C)c2cnc(C(F)(F)F)nc2)N=C1c1ccc(C)cc1` [Compound 34, (S)-4-(N-methylacetamido)-3-(4-methylphenyl)-N-((R)-1-(2-(trifluoromethyl)pyrimidin-5-yl)ethyl)-4,5-dihydro-1H-pyrazol-1-carboxamide], 6.77.
Under `Cc1ccc(C2=NN(C(=O)N[C@H](C)c3cnc(C(F)(F)F)cn3)C[C@@H]2N2CCOCC2=O)cc1` [Compound 26] stands 6.84; under `Cc1ccc(C2=NN(C(=O)N[C@H](C)c3cnc(C(F)(F)F)nc3)C[C@@H]2N2CCOCC2=O)cc1` [Compound 3], 6.67; under `CC(=O)N(C)[C@@H]1CN(C(=O)N[C@H](C)c2ccc(Cl)nc2)N=C1c1ccc(C)cc1` [Compound 11a], 6.55.
Under `CC(=O)N(C)[C@H]1CN(C(=O)N[C@H](C)c2ccc(C(F)(F)F)nc2)N=C1c1ccc(C)cc1` [Compound 25] stands 6.80; under `CC(=O)N1CCN([C@H]2CN(C(=O)N[C@H](C)c3ccc(C(F)(F)F)nc3)N=C2c2ccc(C)cc2)CC1` [Compound 19], 5.41.
In turn, `C[C@@H](NC(=O)N1C[C@H](N2CCCC2=O)C(c2ccc(F)cc2)=N1)c1cnc(Cl)nc1` [Compound 44, (S)-4-(2-oxopyrrolidin-1-yl)-3-(4-fluorophenyl)-N-((R)-1-(2-chloropyrimidin-5-yl)ethyl)-4,5-dihydro-1 H-pyrazol-1-carboxamide] showed a pIC50 of 6.63.
Compound `Cc1ccc(C2=NN(C(=O)N[C@H](C)c3cnc(C(F)(F)F)cn3)C[C@H]2N2CCOCC2=O)cc1` [Compound 26a] gave a pIC50 of 6.48.
For `COc1ccc([C@@H](C)NC(=O)N2C[C@H](N3CCOC3=O)C(c3ccc(C)cc3)=N2)cc1OC` [Compound 6] the value was 5.91; for `Cc1ccc(C2=NN(C(=O)N[C@H](C)c3cnc(C(F)(F)F)nc3)C[C@@H]2n2cccn2)cc1` [Compound 42], 5.31.
Under `Cc1ccc(C2=NN(C(=O)N[C@H](C)c3cnc(C(F)(F)F)nc3)C[C@@H]2N2CCOCC2)cc1` [Compound 39, (S)-4-(morpholin-4-yl)-3-(4-methylphenyl)-N-((R)-1-(2-(trifluoromethyl)pyrimidin-5-yl)ethyl)-4,5-dihydro-1H-pyrazol-1-carboxamide] stands 5.21; under `CC(=O)N(C)[C@@H]1CN(C(=O)N[C@H](C)c2ccc(C(F)(F)F)cc2)N=C1c1ccc(C)cc1` [Compound 5a, (R)-4-(N-methylacetamido)-3-(4-methylphenyl)-N-((R)-1-(4-(trifluoromethyl)phenyl)ethyl)-4,5-dihydro-1H-pyrazol-1-carboxamide], 6.45; under `Cc1ccc(C2=NN(C(=O)N[C@H](C)c3ccc(C(F)(F)F)nc3)C[C@H]2N2CCOC2=O)nc1` [Compound 23a, (R)-4-(2-oxooxazolidin-3-yl)-3-(5-methylpyridin-2-yl)-N-((R)-1-(6-(trifluoromethyl)pyridin-3-yl)ethyl)-4,5-dihydro-1H-pyrazol-1-carboxamide], 7.34.
Under `Cc1ccc(C2=NN(C(=O)N[C@H](C)c3cnc(C)cn3)C[C@H]2N2CCOC2=O)cc1` [Compound 27a] stands 6.59; under `CC(=O)N1CCN([C@H]2CN(C(=O)N[C@H](C)c3ccc(C#N)cc3)N=C2c2ccc(C)cc2)C1=O` [Compound 8, (S)-4-(3-acetyl-2-oxoimidazolidin-1-yl)-3-(4-methylphenyl)-N-((R)-1-(4-cyanophenyl)ethyl)-4,5-dihydro-1H-pyrazol-1-carboxamide], 6.10.
In the case of `Cc1ccc(C2=NN(C(=O)N[C@H](C)c3ccc4c(c3)OCO4)C[C@@H]2N2CCCC2=O)cc1` [Compound 7, (S)-4-(2-oxopyrrolidin-1-yl)-3-(4-methylphenyl)-N-((R)-1-(3,4-(methylenedioxy)phenyl)ethyl)-4,5-dihydro-1H-pyrazol-1-carboxamide], the pIC50 is 6.01.
Under `C[C@@H](NC(=O)N1C[C@@H](N2CCOCC2=O)C(c2ccc(Cl)cc2)=N1)c1cnc(C(F)(F)F)nc1` [Compound 35a, (R)-4-(3-oxomorpholin-4-yl)-3-(4-chlorophenyl)-N-((R)-1-(2-(trifluoromethyl)pyrimidin-5-yl)ethyl)-4,5-dihydro-1H-pyrazol-1-carboxamide] stands 6.35; under `C[C@@H](NC(=O)N1C[C@@H](N2CCOCC2=O)C(c2ccc(F)cc2)=N1)c1ccc(C(F)(F)F)nc1` [Compound 24a], 6.84.
Under `Cc1ccc(C2=NN(C(=O)N[C@H](C)c3ccc(OC(F)(F)F)nc3)C[C@H]2N2CCCC2=O)cc1` [Compound 13a] stands 6.48; under `Cc1ccc(C2=NN(C(=O)N[C@H](C)c3ccc(C(F)(F)F)cn3)C[C@H]2N2CCCC2=O)cc1` [Compound 10a], 6.87.
Under `CC(=O)N1CCN([C@H]2CN(C(=O)N[C@H](C)c3cnc(C(F)(F)F)nc3)N=C2c2ccc(C)cc2)CC1` [Compound 37, (S)-4-(4-acetylpiperazin-1-yl)-3-(4-methylphenyl)-N-((R)-1-(2-(trifluoromethyl)pyrimidin-5-yl)ethyl)-4,5-dihydro-1H-pyrazol-1-carboxamide] stands 5.43.
As to `COc1ccc([C@@H](C)NC(=O)N2C[C@H](N3CCOC3=O)C(c3ccc(Cl)cc3)=N2)nn1` [Compound 29, (S)-4-(2-oxooxazolidin-3-yl)-3-(4-chlorophenyl)-N-((R)-1-(6-(methoxy)pyridazin-3-yl)ethyl)-4,5-dihydro-1H-pyrazol-1-carboxamide], the pIC50 is 6.82.
Under `CC(=O)N(C)[C@@H]1CN(C(=O)N[C@H](C)c2cnc(C(F)(F)F)nc2)N=C1c1ccc(C)cc1` [Compound 34a, (R)-4-(N-methylacetamido)-3-(4-methylphenyl)-N-((R)-1-(2-(trifluoromethyl)pyrimidin-5-yl)ethyl)-4,5-dihydro-1H-pyrazol-1-carboxamide] stands 6.64; under `Cc1ccc(C2=NN(C(=O)N[C@H](C)c3cnc(F)c(F)c3)C[C@H]2N2CCOC2=O)cc1` [Compound 12a], 6.49; under `CC(=O)N(C)[C@H]1CN(C(=O)N[C@H](C)c2ccc(Cl)nc2)N=C1c1ccc(C)cc1` [Compound 11], 6.45.
